According to US11524966B1 (Valo Early Discovery, Inc., priority 2017, dated 2022):

Molecular target: T1, USP25 (USP25-His6, Boston Biochem E-546) (Homo sapiens, UniProt Q9UHP3)
T1 construct: His6; purchased Boston Biochem E-546
T1 sequence (Q9UHP3 1-1055): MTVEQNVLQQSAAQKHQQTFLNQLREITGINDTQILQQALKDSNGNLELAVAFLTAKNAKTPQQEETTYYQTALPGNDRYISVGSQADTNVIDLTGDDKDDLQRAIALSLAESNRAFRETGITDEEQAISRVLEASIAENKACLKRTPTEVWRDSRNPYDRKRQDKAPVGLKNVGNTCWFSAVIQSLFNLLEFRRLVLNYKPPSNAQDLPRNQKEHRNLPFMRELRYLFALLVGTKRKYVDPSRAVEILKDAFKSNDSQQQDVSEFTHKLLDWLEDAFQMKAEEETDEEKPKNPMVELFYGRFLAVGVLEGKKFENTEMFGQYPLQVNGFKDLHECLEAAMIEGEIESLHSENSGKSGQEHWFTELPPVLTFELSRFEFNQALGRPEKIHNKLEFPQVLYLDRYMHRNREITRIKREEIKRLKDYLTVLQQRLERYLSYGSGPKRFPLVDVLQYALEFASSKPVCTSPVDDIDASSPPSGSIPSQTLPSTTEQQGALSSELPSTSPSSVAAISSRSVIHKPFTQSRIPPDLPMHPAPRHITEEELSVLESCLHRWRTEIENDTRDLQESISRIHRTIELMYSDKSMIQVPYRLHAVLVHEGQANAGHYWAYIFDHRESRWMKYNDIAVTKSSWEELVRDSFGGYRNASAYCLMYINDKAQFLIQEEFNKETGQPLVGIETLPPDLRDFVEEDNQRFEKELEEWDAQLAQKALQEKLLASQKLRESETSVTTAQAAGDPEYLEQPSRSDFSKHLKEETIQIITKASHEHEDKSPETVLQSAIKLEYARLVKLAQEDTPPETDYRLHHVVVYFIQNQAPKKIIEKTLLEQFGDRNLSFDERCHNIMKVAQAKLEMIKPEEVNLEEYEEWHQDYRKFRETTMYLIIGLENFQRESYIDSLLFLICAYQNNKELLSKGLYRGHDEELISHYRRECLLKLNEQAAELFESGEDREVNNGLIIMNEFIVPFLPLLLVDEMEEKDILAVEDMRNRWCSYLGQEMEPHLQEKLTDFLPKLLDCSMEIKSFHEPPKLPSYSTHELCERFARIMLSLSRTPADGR
Assay: Ubiquitin-Rhodamine 110 Assay for USP25 Activity, Example A-2
Format: biochemical
Details: Ubiquitin-Rhodamine 110 assay, Example A-2; read-out: USP25 A-2 IC50 range
Method in brief: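 75 pM USP25-His6 was preincubated 30 min with compound (10-point 3-fold series, 25 μM–1.3 nM) in pH 8.0 Tris buffer with BME, BGG and Triton X-100. Then 25 nM Ub-Rh110 (<<Km) was added for 45 min at room temperature, stopped with citric acid, fluorescence read at 485/535 nm, IC50 by 4-parameter fit.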

## Cc1ccc2c(N)c(C(=O)N[C@H]3CCc4nc(N5CCNCC5)ccc4C3)sc2n1 (single isomer, unassigned) [Example 23-7]
  IC50: 200 to 2000 nM

## Cc1ccc2c(N)c(C(=O)N[C@@H]3CCc4nc(N5CCNCC5)ccc4C3)sc2n1 (single isomer, unassigned) [Example 23-8]
  IC50: > 2000 nM

## Cc1ccc2c(N)c(C(=O)N[C@H]3CCc4nc(N5CCN[C@@H](C)C5)ccc4C3)sc2n1 (single isomer, unassigned) [Example 23-15]
  IC50: 200 to 2000 nM

## Cc1ccc2c(N)c(C(=O)N[C@H]3CCc4nc(N5CCN[C@H](C)C5)ccc4C3)sc2n1 (single isomer, unassigned) [Example 23-16]
  IC50: 200 to 2000 nM

## COC[C@@H]1CN(c2ccc3c(n2)CC[C@H](NC(=O)c2sc4nc(C)ccc4c2N)C3)C[C@@H]1N (single isomer, unassigned) [Example 24-1]
  IC50: > 2000 nM

## COC[C@H]1CN(c2ccc3c(n2)CC[C@H](NC(=O)c2sc4nc(C)ccc4c2N)C3)C[C@H]1N (single isomer, unassigned) [Example 24-2]
  IC50: 200 to 2000 nM

## Cc1ccc2c(N)c(C(=O)N[C@H]3CCc4nc(N5CCNCC5)c(F)cc4C3)sc2n1 (single isomer, unassigned) [Example 30-1]
  IC50: 200 to 2000 nM

## Cc1ccc2c(N)c(C(=O)N[C@@H]3CCc4nc(N5CCNCC5)c(F)cc4C3)sc2n1 (single isomer, unassigned) [Example 30-2]
  IC50: > 2000 nM

## Cc1ccc2c(N)c(C(=O)N[C@@H]3Cc4ccc(N5CCNCC5)nc4C4(CC4)C3)sc2n1 (single isomer, unassigned) [Example 31-3, 3-amino-6-methyl-N-[(6′S)-2-(piperazin-1-yl)-6′,7′-dihydro-5′H-spiro[cyclopropane-1,8′-quinoline]-6′-yl]thieno[2,3-b]pyridine-2-carboxamide]
  IC50: > 2000 nM

## Cc1ccc2c(N)c(C(=O)N[C@H]3Cc4ccc(N5CCNCC5)nc4C4(CC4)C3)sc2n1 (single isomer, unassigned) [Example 31-4, 3-amino-6-methyl-N-[(6′R)-2′-(piperazin-1-yl)-6′,7′-dihydro-5′H-spiro[cyclopropane-1,8′-quinoline]-6′-yl]thieno[2,3-b]pyridine-2-carboxamide]
  IC50: 200 to 2000 nM

## Cc1ccc2c(N)c(C(=O)N[C@H]3COc4cc(N5C[C@@H]6CCNC[C@@H]65)ccc4C3)sc2n1 (single isomer, unassigned) [Example 33-3]
  IC50: 50 to 200 nM

## Cc1ccc2c(N)c(C(=O)N[C@H]3COc4cc(N5C[C@H]6CCNC[C@H]65)ccc4C3)sc2n1 (single isomer, unassigned) [Example 33-4]
  IC50: 200 to 2000 nM

## Cc1cnc2c(N)c(C(=O)N[C@H]3COc4cc(N5CC6CCC(C5)N6)c(F)cc4C3)sc2n1 (single isomer, unassigned) [Example 40]
  IC50: 50 to 200 nM

## Cc1cnc2c(N)c(C(=O)N[C@@H]3COc4cc(N5CC6CCC(C5)N6)c(F)cc4C3)sc2n1 (single isomer, unassigned) [Example 41]
  IC50: > 2000 nM

## Cc1nc2sc(C(=O)N[C@H]3CCc4nc(N5CCNCC5)ccc4C3)c(N)c2s1 [Example 23-9]
  IC50: > 2000 nM

## Cc1ccc2c(N)c(C(=O)N[C@H]3CCc4nc(N5CC6CC(C5)N6)ccc4C3)sc2n1 [Example 23-10, 3-amino-N-[(6S)-2-{3,6-diazabicyclo[3.1.1]heptan-3-yl}-5,6,7,8-tetrahydroquinolin-6-yl]-6-methylthieno[2,3-b]pyridine-2-carboxamide]
  IC50: 200 to 2000 nM

## Cc1cnc2c(N)c(C(=O)N[C@H]3CCc4nc(N5CC6CC(C5)N6)ccc4C3)sc2n1 [Example 23-11, 7-amino-N-[(6S)-2-{3,6-diazabicyclo[3.1.1]heptan-3-yl}-5,6,7,8-tetrahydroquinolin-6-yl]-3-methylthieno[2,3-b]pyrazine-6-carboxamide]
  IC50: 200 to 2000 nM

## Cc1ccc2c(N)c(C(=O)N[C@H]3CCc4nc(N5CC6CCC(C5)N6)ccc4C3)sc2n1 [Example 23-12, 3-amino-N-[(6S)-2-{3,8-diazabicyclo[3.2.1]octan-3-yl}-5,6,7,8-tetrahydroquinolin-6-yl]-6-methylthieno[2,3-b]pyridine-2-carboxamide]
  IC50: 200 to 2000 nM

## Cc1cnc2c(N)c(C(=O)N[C@H]3CCc4nc(N5CC6CCC(C5)N6)ccc4C3)sc2n1 [Example 23-13, 7-amino-N-{(6S)-2-{3,8-diazabicyclo[3.2.1]octan-3-yl}-5,6,7,8-tetrahydroquinolin-6-yl]-3-methylthieno[2,3-b]pyrazine-6-carboxamide]
  IC50: 200 to 2000 nM

## Cc1cc(C)c2c(N)c(C(=O)N[C@H]3CCc4nc(N5CCNCC5)ccc4C3)sc2n1 [Example 23-14, 3-amino-4,6-dimethyl-N-[(6S)-2-(piperazin-1-yl)-5,6,7,8-tetrahydroquinolin-6-yl]thieno[2,3-b]pyridine-2-carboxamide]
  IC50: 200 to 2000 nM

## Cc1ccc2c(N)c(C(=O)N[C@H]3CCc4nc(N5CCNCC5)cc(F)c4C3)sc2n1 [Example 23-17, 3-amino-N-[(6S)-4-fluoro-2-(piperazin-1-yl)-5,6,7,8-tetrahydroquinolin-6-yl]-6-methylthieno[2,3-b]pyridine-2-carboxamide]
  IC50: 200 to 2000 nM

## Cc1ccc2c(N)c(C(=O)N[C@H]3CCc4nc(N5CC6CCC(C5)N6)cc(F)c4C3)sc2n1 [Example 23-18, N-((6S)-2-(3,8-diazabicyclo[3.2.1]octan-3-yl)-4-fluoro-5,6,7,8-tetrahydroquinolin-6-yl)-3-amino-6-methylthieno[2,3-b]pyridine-2-carboxamide]
  IC50: 200 to 2000 nM

## Cc1ccc2c(N)c(C(=O)N[C@H]3CCc4nc(N5C[C@@H](N)[C@H](C(F)F)C5)ccc4C3)sc2n1 [Example 25, 3-Amino-N-[(6S)-2-[(3S,4R)-3-amino-4-(difluoromethyl)pyrrolidin-1-yl]-5,6,7,8-tetrahydroquinolin-6-yl]-6-methylthieno[2,3-b]pyridine-2-carboxamide]
  IC50: 200 to 2000 nM

## Cc1ccc2c(N)c(C(=O)N[C@H]3COc4cc(C5(C#N)CCS(=O)(=O)CC5)ccc4C3)sc2n1 [Example 34, 3-amino-N-[(3R)-7-(4-cyano-1,1-dioxo-1λ6-thian-4-yl)-3,4-dihydro-2H-1-benzopyran-3-yl]-6-methylthieno[2,3-b]pyridine-2-carboxamide]
  IC50: 1 to 50 nM

## Cc1ccc2c(N)c(C(=O)N[C@H]3COc4c(F)c(N5CCNCC5)c(F)c(F)c4C3)sc2n1 [Example 35, 3-amino-6-methyl-N-[(3R)-5,6,8-trifluoro-7-(piperazin-1-yl)-3,4-dihydro-2H-1-benzopyran-3-yl]thieno[2,3-b]pyridine-2-carboxamide]
  IC50: 50 to 200 nM

## CCc1cnc2sc(C(=O)N[C@H]3COc4cc(N5CCNCC5)ccc4C3)c(N)c2n1 [Example 36, (R)-7-amino-2-ethyl-N-(7-(piperazin-1-yl)chroman-3-yl)thieno[2,3-b]pyrazine-6-carboxamide]
  IC50: 200 to 2000 nM

## CCc1cnc2sc(C(=O)N[C@@H]3COc4cc(N5CCNCC5)ccc4C3)c(N)c2n1 [Example 37, (S)-7-amino-2-ethyl-N-(7-(piperazin-1-yl)chroman-3-yl)thieno[2,3-b]pyrazine-6-carboxamide]
  IC50: > 2000 nM

## O=C(N[C@H]1COc2cc(N3CCNCC3)ccc2C1)c1cnc2c(ccn2C(F)F)c1 [Example 38, (R)-1-(difluoromethyl)-N-(7-(piperazin-1-yl)chroman-3-yl)-1H-pyrrolo[2,3-b]pyridine-5-carboxamide]
  IC50: > 2000 nM

## O=C(N[C@@H]1COc2cc(N3CCNCC3)ccc2C1)c1cnc2c(ccn2C(F)F)c1 [Example 39, (S)-1-(difluoromethyl)-N-(7-(piperazin-1-yl)chroman-3-yl)-1H-pyrrolo[2,3-b]pyridine-5-carboxamide]
  IC50: > 2000 nM

## Cc1ccc2c(N)c(C(=O)N[C@H]3COc4cc(N5C[C@H]6CNC[C@@H]6C5)ccc4C3)sc2n1 [Example 43, 3-amino-N-((R)-7-((3aR,6aR)-hexahydropyrrolo[3,4-c]pyrrol-2(1H)-yl)chroman-3-yl)-6-methylthieno[2,3-b]pyridine-2-carboxamide]
  IC50: > 2000 nM

## Cc1ccc2c(N)c(C(=O)N[C@@H]3COc4cc(N5C[C@H]6CNC[C@@H]6C5)ccc4C3)sc2n1 [Example 44, 3-amino-N-((S)-7-((3aR,6aR)-hexahydropyrrolo[3,4-c]pyrrol-2(1H)-yl)chroman-3-yl)-6-methylthieno[2,3-b]pyridine-2-carboxamide]
  IC50: > 2000 nM
